# From patent US11214803B2, “Modulators of YAP1 expression” (Ionis Pharmaceuticals, Inc., priority 2019, dated 2022)
# Strand notation (5' to 3'): a small letter for the sugar, then the base; units joined by * are phosphorothioate-linked, units joined directly phosphodiester-linked; [ ] holds rarer units or linkages, { } end groups; capitals alone tell only the bases. k = constrained ethyl (cEt); [5mC] = 5-methylcytosine; d = 2'-deoxy (DNA)
# Tested on: Yap1 mRNA
# Experiment: Dose-dependent inhibition of human Yap1 in A-431 cells (Example 8, 10,000 cells per well, RTS4814)
# Assay type: cell-based
# Conditions: free uptake, approximately 48 hours, RTS4814; for Yap1 mRNA, % UTC: A-431 cells, 10,000 cells per well; for IC50: A-431 cells, linear regression on log/linear plot
# Experimental: Modified oligonucleotides described in the studies above were tested at various doses in A-431 cells. Cultured A-431 cells at a density of 10,000 cells per well were treated using free uptake with modified oligonucleotides diluted to concentrations described in the tables below. After approximately 48 hours, Yap1 mRNA levels were measured as previously described using the Human Yap1 primer-probe set RTS4814. Yap1 mRNA levels were normalized to total RNA content, as measured by RIBOGREEN®. Results are presented in the tables below as percent control of the amount of Yap1 mRNA relative to untreated control cells (% UTC). IC50s were calculated using a linear regression on a log/linear plot of the data in excel.
Substance,"Yap1 mRNA, % UTC (31.3 nM) [% UTC]","Yap1 mRNA, % UTC (125.0 nM) [% UTC]","Yap1 mRNA, % UTC (500.0 nM) [% UTC]","Yap1 mRNA, % UTC (2000.00 nM) [% UTC]",IC50 [nM]
1076459 (k[5mC]*kT*kT*d[5mC]*dA*dA*d[5mC]*dA*dA*dG*dA*d[5mC]*dA*kG*kG*kT; antisense) [compound 1076459],67,32,13,7,100
1076426 (kA*k[5mC]*kG*dG*dG*dA*dA*dA*dA*dT*dT*d[5mC]*dT*kG*kG*kA; antisense) [compound 1076426],68,46,24,18,100
1076294 (kT*kA*kT*dA*dT*dT*dA*dG*dT*dG*d[5mC]*d[5mC]*d[5mC]*k[5mC]*k[5mC]*kT; antisense) [compound 1076294],76,50,21,11,100
1075048 (antisense kG*kT*kA*dA*dA*dA*dT*dT*dA*dG*dA*d[5mC]*dT*k[5mC]*k[5mC]*k[5mC]) [compound 1075048],76,42,13,5,100
1076490 (k[5mC]*k[5mC]*kA*dA*dA*dA*dT*dA*dG*dG*dT*dG*dA*kG*kT*k[5mC]; antisense) [compound 1076490],36,9,4,3,< 20
1076549 (kG*kT*kG*d[5mC]*dA*dA*dA*dA*dT*dA*d[5mC]*d[5mC]*dT*kT*kT*kG; antisense) [compound 1076549],53,24,10,6,< 20
1075465 (antisense kG*kA*kT*dT*dT*dA*dT*dT*dG*dA*dA*d[5mC]*dT*kG*kA*kG) [compound 1075465],75,35,14,9,100
1076298 (kG*kT*kT*dA*dT*dA*dA*dA*dG*dA*d[5mC]*d[5mC]*d[5mC]*kA*kA*kT; antisense) [compound 1076298],92,58,29,18,200
1076416 (kA*k[5mC]*k[5mC]*dG*dA*dA*dA*dT*dG*dA*dT*dA*d[5mC]*kT*kG*kA; antisense) [compound 1076416],67,33,13,7,100
1074564 (DNA k[5mC]*kT*kG*dA*dA*dT*dT*d[5mC]*d[5mC]*dA*dA*dT*d[5mC]*kG*kA*kG) [compound 1074564],40,14,7,4,< 20
1076323 (k[5mC]*kA*kA*dT*dT*dT*dA*d[5mC]*dA*dA*dG*dT*dG*kA*kG*k[5mC]; antisense) [compound 1076323],41,35,13,5,< 20
1074593 (DNA kA*kG*kG*dA*dG*d[5mC]*dA*dA*dG*dT*d[5mC]*dT*dT*kG*kT*kA) [compound 1074593],50,20,9,8,< 20
1076064 (kT*kA*kT*dG*dA*dA*d[5mC]*dA*dA*dT*dG*dT*dA*k[5mC]*kT*k[5mC]; antisense) [compound 1076064],68,26,10,5,100
1074250 (antisense k[5mC]*kT*kG*dA*dT*d[5mC]*dG*dA*dT*dG*dT*dG*dA*kT*kT*kT) [compound 1074250],67,35,15,9,100
1074368 (kG*kA*kT*dA*dG*dT*dA*dT*d[5mC]*dA*d[5mC]*d[5mC]*dT*kG*kT*kA; antisense) [compound 1074368],67,34,15,10,100
1074251 (antisense kT*k[5mC]*kT*dG*dA*dT*d[5mC]*dG*dA*dT*dG*dT*dG*kA*kT*kT) [compound 1074251],73,33,16,10,100
1074850 (kT*kT*kG*dT*dT*dA*dT*dG*dA*dT*dA*dG*dG*k[5mC]*kA*k[5mC]; antisense) [compound 1074850],63,20,7,5,40
1075457 (antisense kA*kG*kT*dA*dA*dT*dA*dT*dG*dT*dA*d[5mC]*dA*kT*kG*kG) [compound 1075457],52,21,8,6,< 20
1076489 (k[5mC]*kA*kA*dA*dA*dT*dA*dG*dG*dT*dG*dA*dG*kT*k[5mC]*kA; antisense) [compound 1076489],43,13,4,3,< 20
1075207 (k[5mC]*kT*kA*dT*dT*dA*dA*dA*dT*dG*dA*dG*d[5mC]*kA*k[5mC]*k[5mC]; antisense) [compound 1075207],82,51,17,7,100
1075785 (k[5mC]*kA*kT*dT*dT*dT*dA*dT*dA*dG*dG*dG*d[5mC]*k[5mC]*kA*kT; antisense) [compound 1075785],29,7,3,3,< 20
1075143 (k[5mC]*k[5mC]*kT*dT*dA*dT*dT*dA*dG*dT*d[5mC]*dA*dG*kT*kT*k[5mC]; antisense) [compound 1075143],59,21,5,3,< 20
1075784 (kA*kT*kT*dT*dT*dA*dT*dA*dG*dG*dG*d[5mC]*d[5mC]*kA*kT*kT; antisense) [compound 1075784],54,18,5,3,< 20
